Experimental data from PubChem BioAssay AID330 (DTP/NCI, 2004).
Values joined by “and” are separate entries in the source; they are usually repeats but may differ in a detail not shown here. Equal values may be shown once. Inconclusive results and toxic doses are left out.

Tested on: P388 leukemia ip, CD2F1 mice, survival T/C
Test: NCI In Vivo Anticancer Drug Screen. Data for tumor model P388 Leukemia (intraperitoneal) in CD2F1 (CDF1) mice
Conditions: endpoint: median survival time, higher = longer survival
In short: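 Mice carrying the transplanted tumor received test compound or vehicle. Survival was recorded in each group, and the value is the treated-group measurement divided by that of the vehicle-treated control group.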

[1] = dose: 60.0 mg/kg/injection, schedule: Q01DX005 (ip), vehicle: saline with Tween-80
[2] = dose: 120.0 mg/kg/injection, schedule: Q01DX005 (ip), vehicle: saline with Tween-80
[3] = dose: 240.0 mg/kg/injection, schedule: Q01DX005 (ip), vehicle: saline with Tween-80
[4] = dose: 25.0 mg/kg/injection, schedule: Q01DX009 (ip), vehicle: saline with Tween-80
[5] = dose: 50.0 mg/kg/injection, schedule: Q01DX009 (ip), vehicle: saline with Tween-80
[6] = dose: 100.0 mg/kg/injection, schedule: Q01DX009 (ip), vehicle: saline with Tween-80
[7] = dose: 50.0 mg/kg/injection, schedule: Q01DX005 (ip), vehicle: Klucel (hydroxypropylcellulose) (HPC)
[8] = dose: 100.0 mg/kg/injection, schedule: Q01DX005 (ip), vehicle: Klucel (hydroxypropylcellulose) (HPC)
[9] = dose: 200.0 mg/kg/injection, schedule: Q01DX005 (ip), vehicle: Klucel (hydroxypropylcellulose) (HPC)
[10] = dose: 60.0 mg/kg/injection, schedule: Q01DX005 (ip), vehicle: saline
[11] = dose: 120.0 mg/kg/injection, schedule: Q01DX005 (ip), vehicle: saline
[12] = dose: 240.0 mg/kg/injection, schedule: Q01DX005 (ip), vehicle: saline
[13] = dose: 200.0 mg/kg/injection, schedule: Q01DX009 (ip), vehicle: saline with Tween-80
[14] = dose: 100.0 mg/kg/injection, schedule: Q04DX002 (ip), vehicle: saline with Tween-80
[15] = dose: 200.0 mg/kg/injection, schedule: Q04DX002 (ip), vehicle: saline with Tween-80
[16] = dose: 400.0 mg/kg/injection, schedule: Q04DX002 (ip), vehicle: saline with Tween-80
[17] = dose: 100.0 mg/kg/injection, schedule: Q04DX003 (ip), vehicle: saline with Tween-80
[18] = dose: 200.0 mg/kg/injection, schedule: Q04DX003 (ip), vehicle: saline with Tween-80
[19] = dose: 12.5 mg/kg/injection, schedule: Q01DX005 (ip), vehicle: saline with Tween-80
[20] = dose: 25.0 mg/kg/injection, schedule: Q01DX005 (ip), vehicle: saline with Tween-80
[21] = dose: 50.0 mg/kg/injection, schedule: Q01DX005 (ip), vehicle: saline with Tween-80
[22] = dose: 100.0 mg/kg/injection, schedule: Q01DX005 (ip), vehicle: saline with Tween-80

COC(=O)c1cccc2c([N+](=O)[O-])c(NC(C)=O)cc(C(=O)OC)c12
T/C [1]: 100 % of control
T/C [2]: 104 % of control
T/C [3]: 100 % of control

CCCCCCCN(CCCCCCC)CC(O)c1c(OC)c2cc(Br)ccc2c2ccc(Br)cc12 (stereo not given)
T/C (dose: 7.5 mg/kg/injection, schedule: Q01DX009 (ip), vehicle: saline with Tween-80): 93 % of control
T/C (dose: 15.0 mg/kg/injection, schedule: Q01DX009 (ip), vehicle: saline with Tween-80): 100 % of control
T/C (dose: 30.0 mg/kg/injection, schedule: Q01DX009 (ip), vehicle: saline with Tween-80): 93 % of control

CCC1(C)c2cc(C)c(C(C)=O)cc2C(C)(C)C1C (stereo not given)
T/C [4]: 100 % of control
T/C [5]: 101 % of control
T/C [6]: 100 % of control

CCCCC1C(=S)N(c2ccccc2)N(c2ccccc2)C1=S
T/C [7]: 101 % of control
T/C [8]: 94 % of control
T/C [9]: 97 % of control

CC1(C)OC2OC3C(O)C(=O)OC3C2O1 (stereo not given)
T/C [10]: 107 % of control
T/C [11]: 97 % of control
T/C [12]: 99 % of control

CNC(=O)c1ccccc1O
T/C [5]: 103 % of control
T/C [6]: 103 % of control
T/C [13]: 95 % of control
T/C (dose: 400.0 mg/kg/injection, schedule: Q01DX009 (ip), vehicle: saline with Tween-80): 90 % of control

COC(=O)CCCc1ccc(OC)c(OC)c1
T/C (dose: 12.5 mg/kg/injection, schedule: Q01DX009 (ip), vehicle: saline with Tween-80): 100 % of control
T/C [4]: 92 % of control
T/C [5]: 95 % of control
T/C [6]: 89 % of control

NC1=C(N2CC2)C(=O)C(N)=C(N2CC2)C1=O
T/C (dose: 0.05 mg/kg/injection, schedule: Q01DX009 (ip), vehicle: saline): 177 % of control
T/C (dose: 0.1 mg/kg/injection, schedule: Q01DX009 (ip), vehicle: saline): 187 % of control and 223 % of control
T/C (dose: 0.2 mg/kg/injection, schedule: Q01DX009 (ip), vehicle: saline): 256 % of control
T/C (dose: 0.3 mg/kg/injection, schedule: Q01DX009 (ip), vehicle: saline): 225 % of control

CCCCCCCCC(=O)c1c(OC)oc(/C=N/NC(N)=O)cc1=O
T/C (dose: 25.0 mg/kg/injection, schedule: Q01DX009 (ip), vehicle: Klucel (hydroxypropylcellulose) (HPC)): 92 % of control
T/C (dose: 50.0 mg/kg/injection, schedule: Q01DX009 (ip), vehicle: Klucel (hydroxypropylcellulose) (HPC)): 89 % of control
T/C (dose: 100.0 mg/kg/injection, schedule: Q01DX009 (ip), vehicle: Klucel (hydroxypropylcellulose) (HPC)): 92 % of control
T/C (dose: 200.0 mg/kg/injection, schedule: Q01DX009 (ip), vehicle: Klucel (hydroxypropylcellulose) (HPC)): 91 % of control

OCc1cnccc1Br
T/C [10]: 99 % of control
T/C [11]: 100 % of control
T/C [12]: 99 % of control

Cc1cc(O)c(CO)cc1C
T/C [14]: 104 % of control
T/C [15]: 110 % of control
T/C [16]: 107 % of control

OC(CI)C(O)C(O)C(O)CI (stereo not given)
T/C [6]: 105 % of control and 115 % of control
T/C (dose: 100.0 mg/kg/injection, schedule: Q01DX009 (ip), vehicle: saline): 98 % of control
T/C [17]: 100 % of control and 104 % of control
T/C (dose: 132.0 mg/kg/injection, schedule: Q01DX009 (ip), vehicle: saline with Tween-80): 122 % of control
T/C (dose: 200.0 mg/kg/injection, schedule: Q01DX009 (ip), vehicle: saline): 91 % of control
T/C [18]: 104 % of control and 113 % of control
T/C (dose: 400.0 mg/kg/injection, schedule: Q01DX009 (ip), vehicle: saline): 105 % of control
T/C (dose: 400.0 mg/kg/injection, schedule: Q04DX003 (ip), vehicle: saline with Tween-80): 100 % of control and 113 % of control
T/C (dose: 500.0 mg/kg/injection, schedule: Q01DX009 (ip), vehicle: saline): 96 % of control

Nc1ccccc1C(=O)Nc1ccccc1
T/C [6]: 88 % of control

CCO/C=C/C(=O)O
T/C [1]: 106 % of control
T/C [2]: 100 % of control
T/C [3]: 107 % of control

NC(=S)N1N=C(c2cccc([N+](=O)[O-])c2)CCC1=O
T/C (dose: 25.0 mg/kg/injection, schedule: Q04DX003 (ip), vehicle: saline with Tween-80): 100 % of control
T/C (dose: 50.0 mg/kg/injection, schedule: Q04DX003 (ip), vehicle: saline with Tween-80): 103 % of control
T/C [17]: 100 % of control
T/C [18]: 101 % of control

CCC(=O)Oc1ccc(/C=N/NC(N)=S)nc1
T/C (dose: 12.5 mg/kg/injection, schedule: Q01DX009 (ip), vehicle: saline): 166 % of control
T/C (dose: 25.0 mg/kg/injection, schedule: Q01DX009 (ip), vehicle: saline): 157 % of control
T/C (dose: 50.0 mg/kg/injection, schedule: Q01DX009 (ip), vehicle: saline): 158 % of control and 164 % of control

Cc1cc(C=C2C(=O)NC(=S)NC2=O)cc(C)c1O
T/C [19]: 101 % of control and 96 % of control and 97 % of control
T/C [20]: 105 % of control and 106 % of control and 118 % of control

CCCCN(CCCC)CCNc1ccc(C)c2sc3ccc(Cl)cc3c(=O)c12
T/C [19]: 88 % of control
T/C [20]: 88 % of control
T/C [21]: 89 % of control

CN(C)c1ccc2nc3ccc(=[N+](C)C)c([N+](=O)[O-])c-3sc2c1
T/C (dose: 15.0 mg/kg/injection, schedule: Q01DX005 (ip), vehicle: saline): 105 % of control
T/C (dose: 30.0 mg/kg/injection, schedule: Q01DX005 (ip), vehicle: saline): 100 % of control
T/C [21]: 116 % of control
T/C [22]: 100 % of control

C/C(=N\N=c1\sc2ccccc2n1CC(=O)O)c1ccc([N+](=O)[O-])cc1
T/C (dose: 100.0 mg/kg/injection, schedule: Q01DX001 (ip), vehicle: saline with Tween-80): 93 % of control
T/C (dose: 200.0 mg/kg/injection, schedule: Q01DX001 (ip), vehicle: saline with Tween-80): 101 % of control

CCCCS(=O)(=O)CCC(N)C(=O)O (stereo not given)
T/C [1]: 94 % of control
T/C [2]: 90 % of control

O=P(OCc1ccccc1)(N(CCCl)CCCl)N1CCN(P(=O)(OCc2ccccc2)N(CCCl)CCCl)CC1 (stereo not given)
T/C [6]: 150 % of control
T/C [17]: 116 % of control

O=C[C@@H](CO)O[C@H](C=O)n1cnc2c(=O)[nH]cnc21
T/C (dose: 80.0 mg/kg/injection, schedule: Q01DX009 (ip), vehicle: saline): 166 % of control and 169 % of control
T/C (dose: 150.0 mg/kg/injection, schedule: Q01DX005 (ip), vehicle: saline): 171 % of control
T/C (dose: 160.0 mg/kg/injection, schedule: Q01DX009 (ip), vehicle: saline): 187 % of control and 189 % of control and 209 % of control
T/C (dose: 250.0 mg/kg/injection, schedule: Q01DX005 (ip), vehicle: saline): 56 % of control
T/C (dose: 320.0 mg/kg/injection, schedule: Q01DX009 (ip), vehicle: saline): 100 % of control and 104 % of control

CC1(C)CC(C)(C)C([Se]C2=C(O)C(=O)C(C)(C)CC2(C)C)=C(O)C1=O
T/C [5]: 100 % of control
T/C [6]: 101 % of control
T/C [13]: 94 % of control

C[C@@H]1C(=O)OCC2=C3C[C@@H](CC[C@@]3(C)C=CC2=O)[C@H](C)C(=O)OCC2=C3C[C@H]1CC[C@@]3(C)C=CC2=O
T/C [7]: 100 % of control
T/C [8]: 101 % of control
T/C [9]: 95 % of control

CC1=C(OS(C)(=O)=O)CCC1=O
T/C [19]: 104 % of control
T/C [20]: 103 % of control
T/C [21]: 103 % of control and 107 % of control
T/C [22]: 106 % of control

CN(C=O)/C=C1\CC(OO)NC1=O (stereo not given)
T/C [10]: 100 % of control
T/C [11]: 101 % of control
T/C [12]: 103 % of control

CCCCCCCCCCCCCCCn1nnnc1N
T/C [21]: 86 % of control
T/C [22]: 91 % of control
T/C (dose: 200.0 mg/kg/injection, schedule: Q01DX005 (ip), vehicle: saline with Tween-80): 96 % of control

CCc1ccccc1NC(=O)C(=O)CC(=O)c1ccc(Cl)s1
T/C [14]: 100 % of control
T/C [15]: 102 % of control
T/C [16]: 103 % of control

c1ccc2nc3ccccc3nc2c1
T/C (dose: 25.0 mg/kg/injection, schedule: Q01DX005 (ip), vehicle: Klucel (hydroxypropylcellulose) (HPC)): 109 % of control
T/C [7]: 104 % of control
T/C [8]: 104 % of control
T/C [9]: 104 % of control
